From US12692254B2, “Benzimidazole inhibitors of PAD enzymes” (BRISTOL-MYERS SQUIBB COMPANY, priority 2018, dated 2026)
pIC50: −log10 of the molar value.

Target: human PAD4 (hPAD4) (Homo sapiens, UniProt Q9UM07)
Assay: RFMS human PAD4 functional assay (rapid-fire mass spectrum)
Type: biochemical
Conditions: 5 nM hPAD4 enzyme, 250 μM BAEE, 50 μM Calcium; 30 min preincubation, 90 min reaction at 37° C.
Procedure, shortened: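 PAD4 (10 nM) preincubated 30 min with compound (top final 50 μM), then BAEE substrate added in pH 7.5 HEPES buffer with DTT, 50 μM calcium, TPEN; 90 min at 37° C. After TCA quench, citrulline derivatized with phenyl glyoxal (4 mM final, 30 min, 37° C) and quantified by RapidFire MS against internal standard.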

Chain of human PAD4 (hPAD4) (Q9UM07 whole entry): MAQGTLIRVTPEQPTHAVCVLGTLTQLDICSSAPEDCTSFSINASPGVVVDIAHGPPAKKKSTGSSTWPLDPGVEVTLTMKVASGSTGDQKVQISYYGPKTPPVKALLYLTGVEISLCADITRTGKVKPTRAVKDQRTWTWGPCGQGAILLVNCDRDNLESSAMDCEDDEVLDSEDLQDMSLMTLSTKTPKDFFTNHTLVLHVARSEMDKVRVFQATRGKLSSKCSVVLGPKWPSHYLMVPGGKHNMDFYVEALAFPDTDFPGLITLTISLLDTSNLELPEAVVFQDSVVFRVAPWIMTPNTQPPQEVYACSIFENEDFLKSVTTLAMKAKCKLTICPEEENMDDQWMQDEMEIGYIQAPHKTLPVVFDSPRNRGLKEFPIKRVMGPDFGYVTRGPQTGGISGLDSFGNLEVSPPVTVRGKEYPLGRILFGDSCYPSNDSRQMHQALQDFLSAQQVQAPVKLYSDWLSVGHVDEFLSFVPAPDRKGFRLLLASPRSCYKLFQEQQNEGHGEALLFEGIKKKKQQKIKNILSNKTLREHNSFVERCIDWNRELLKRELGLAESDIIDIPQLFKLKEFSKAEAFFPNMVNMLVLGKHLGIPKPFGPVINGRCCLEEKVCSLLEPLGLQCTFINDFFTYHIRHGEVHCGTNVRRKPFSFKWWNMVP

SMILES	pIC50
COc1cc(C(=O)N2C[C@H]3CC[C@@H]2[C@@H]3N)cc2nc(-c3cc4cccnc4n3CC3CC3)n(CC3CN(C(=O)C4CC4)C3)c12 [Example 123, (1R,4R,7R)-2-{1-[(1-cyclopropanecarbonylazetidin-3-yl)methyl]-2-[1-(cyclopropylmethyl)-1H-pyrrolo[2,3-b]pyridin-2-yl]-7-methoxy-1H-1,3-benzodiazole-5-carbonyl}-2-azabicyclo[2.2.1]heptan-7-amine]	7.00
C=CC(=O)N1CC(Cn2c(-c3cc4cccnc4n3CC3CC3)nc3cc(C(=O)N4C[C@H]5CC[C@@H]4[C@@H]5N)cc(OC)c32)C1 [Example 124, 1-[3-({5-[(1R,4R,7R)-7-amino-2-azabicyclo[2.2.1]heptane-2-carbonyl]-2-[1-(cyclopropylmethyl)-1H-pyrrolo[2,3-b]pyridin-2-yl]-7-methoxy-1H-1,3-benzodiazol-1-yl}methyl)azetidin-1-yl]prop-2-en-1-one]	6.99
COc1cc(C(=O)N2C[C@H]3CC[C@@H]2[C@@H]3N)cc2nc(-c3cc4cccnc4n3CC3CC3)n(CC3CN(C(=O)c4ccnc(N)n4)C3)c12 [Example 125, (1R,4R,7R)-2-(1-{[1-(2-aminopyrimidine-4-carbonyl)azetidin-3-yl]methyl}-2-[1-(cyclopropylmethyl)-1H-pyrrolo[2,3-b]pyridin-2-yl]-7-methoxy-1H-1,3-benzodiazole-5-carbonyl)-2-azabicyclo[2.2.1]heptan-7-amine]	6.99
COc1cc(C(=O)N2C[C@H]3CC[C@@H]2[C@@H]3N)cc2nc(-c3cc4cccnc4n3CC3CC3)n(CC3CN(C(=O)c4ccnc(Cl)n4)C3)c12 [Example 126, (1R,4R,7R)-2-(1-{[1-(2-chloropyrimidine-4-carbonyl)azetidin-3-yl]methyl}-2-[1-(cyclopropylmethyl)-1H-pyrrolo[2,3-b]pyridin-2-yl]-7-methoxy-1H-1,3-benzodiazole-5-carbonyl)-2-azabicyclo[2.2.1]heptan-7-amine]	6.97
COc1cc(C(=O)N2C[C@H]3CC[C@@H]2[C@@H]3N)cc2nc(-c3cc4cccnc4n3CC3CC3)n(CC3CN(C(=O)c4cnc(C#N)nc4)C3)c12 [Example 127, 5-[3-({5-[(1R,4R,7R)-7-amino-2-azabicyclo[2.2.1]heptane-2-carbonyl]-2-[1-(cyclopropylmethyl)-1H-pyrrolo[2,3-b]pyridin-2-yl]-7-methoxy-1H-1,3-benzodiazol-1-yl}methyl)azetidine-1-carbonyl]pyrimidine-2-carbonitrile]	6.96
COc1cc(C(=O)N2CC3CCC2[C@@H]3N)cc2nc(-c3cc4cccnc4n3CC3CC3)n(CC3CN(C(=O)[C@@H]4C[C@H]4C)C3)c12 (stereo partly drawn) [Example 128, (1R,4R,7R)-2-{2-[1-(cyclopropylmethyl)-1H-pyrrolo[2,3-b]pyridin-2-yl]-7-methoxy-1-({1-[(1R,2R)-2-methylcyclopropanecarbonyl]aze-tidin-3-yl}methyl)-1H-1,3-benzodiazole-5-carbonyl}-2-azabicyclo[2.2.1]heptan-7-amine]	6.96
COC(=O)c1cc(C(=O)N2CC(Cn3c(-c4cc5cccnc5n4CC4CC4)nc4cc(C(=O)N5C[C@H]6CC[C@@H]5[C@@H]6N)cc(OC)c43)C2)ccn1 [Example 129, methyl 4-[3-({5-[(1R,4R,7R)-7-amino-2-azabicyclo[2.2.1]heptane-2-carbonyl]-2-[1-(cyclopropylmethyl)-1H-pyrrolo[2,3-b]pyridin-2-yl]-7-methoxy-1H-1,3-benzodiazol-1-yl}methyl)azetidine-1-carbonyl]pyridine-2-carboxylate]	6.94
CCOC(=O)N1CC(Cn2c(-c3cc4cccnc4n3CC3CC3)nc3cc(C(=O)N4C[C@H]5CC[C@@H]4[C@@H]5N)cc(OC)c32)C1 [Example 130, ethyl 3-({5-[(1R,4R,7R)-7-amino-2-azabicyclo[2.2.1]heptane-2-carbonyl]-2-[1-(cyclopropylmethyl)-1H-pyrrolo[2,3-b]pyridin-2-yl]-7-methoxy-1H-1,3-benzodiazol-1-yl}methyl)azetidine-1-carboxylate]	6.89
N[C@@H]1[C@@H]2CC[C@H]1N(C(=O)c1cc(Cl)c3c(c1)nc(-c1cc4cccnc4n1CC1CC1)n3CC1CN(C(=O)c3ccncc3)C1)C2 [Example 131, (1R,4R,7R)-2-{7-chloro-2-[1-(cyclopropylmethyl)-1H-pyrrolo[2,3-b]pyridin-2-yl]-1-{[1-(pyridine-4-carbonyl)azetidin-3-yl]methyl}-1H-1,3-benzodiazole-5-carbonyl}-2-azabicyclo[2.2.1]heptan-7-amine]	6.86
COC(=O)N1CC(Cn2c(-c3cc4cccnc4n3CC3CC3)nc3cc(C(=O)N4C[C@H]5CC[C@@H]4[C@@H]5N)cc(OC)c32)C1 [Example 132, methyl 3-({5-[(1R,4R,7R)-7-amino-2-azabicyclo[2.2.1]heptane-2-carbonyl]-2-[1-(cyclopropylmethyl)-1H-pyrrolo[2,3-b]pyridin-2-yl]-7-methoxy-1H-1,3-benzodiazol-1-yl}methyl)azetidine-1-carboxylate]	6.83
C#CC(=O)N1CC(Cn2c(-c3cc4cccnc4n3CC3CC3)nc3cc(C(=O)N4CC5CCC4[C@@H]5N)cc(OC)c32)C1 (stereo partly drawn) [Example 133, 1-[3-({5-[(1R,4R,7R)-7-amino-2-azabicyclo[2.2.1]heptane-2-carbonyl]-2-[1-(cyclopropylmethyl)-1H-pyrrolo[2,3-b]pyridin-2-yl]-7-methoxy-1H-1,3-benzodiazol-1-yl}methyl)azetidin-1-yl]prop-2-yl-1-one]	6.78
CCC(=O)N1CC(Cn2c(-c3cc4cccnc4n3CC3CC3)nc3cc(C(=O)N4C[C@H]5CC[C@@H]4[C@@H]5N)cc(OC)c32)C1 [Example 134, 1-[3-({5-[(1R,4R,7R)-7-amino-2-azabicyclo[2.2.1]heptane-2-carbonyl]-2-[1-(cyclopropylmethyl)-1H-pyrrolo[2,3-b]pyridin-2-yl]-7-methoxy-1H-1,3-benzodiazol-1-yl}methyl)azetidin-1-yl]propan-1-one]	6.71
COc1cc(C(=O)N2C[C@H]3CC[C@@H]2[C@@H]3N)cc2nc(-c3cc4ccccc4n3CC3CC3)n(CC3CN(C(=O)c4ccc(C#N)c(F)c4)C3)c12 [Example 135, 4-[3-({5-[(1R,4R,7R)-7-amino-2-azabicyclo[2.2.1]heptane-2-carbonyl]-2-[1-(cyclopropylmethyl)-1H-indol-2-yl]-7-methoxy-1H-1,3-benzodiazol-1-yl}methyl)azetidine-1-carbonyl]-2-fluorobenzonitrile]	8.10
N[C@@H]1C2CCC1N(C(=O)c1cc(F)c3c(c1)nc(-c1cc4ccccc4n1CC1CC1)n3CC1CN(C(=O)c3ccccc3)C1)C2 (stereo partly drawn) [Example 136, (1R,4R,7R)-2-{1-[(1-benozylazetidin-3-yl)methyl]-2-[1-(cyclopropylmethyl)-1H-indol-2-yl]-7-fluoro-1H-1,3-benzodiazole-5-carbonyl}-2-azabicyclo[2.2.1]heptan-7-amine]	7.96
COc1cc(C(=O)N2C[C@H]3CC[C@@H]2[C@@H]3N)cc2nc(-c3cc4ccccc4n3CC3CC3)n(CC3CN(C(=O)c4cccc(C(=O)O)c4)C3)c12 [Example 137, 3-[3-({5-[(1R,4R,7R)-7-amino-2-azabicyclo[2.2.1]heptane-2-carbonyl]-2-[1-(cyclopropylmethyl)-1H-indol-2-yl]-7-methoxy-1H-1,3-benzodiazol-1-yl}methyl)azetidine-1-carbonyl]benzoic acid]	7.96
